Reference: US7169591B1, “Preparation of enantio-specific epoxides” (priority 1999, dated 2007)

Key:
[1] = test system: Burkholderia sp. strain ENVBF1; assay: Alkene degradation assay, whole cells of Burkholderia sp. strain ENVBF1 (T4MO); type: cell-based
Description: (§1) Pseudomonas mendocina KR1 (Yen et al., J. Bacteriol., 173:5315–5327 (1991)), the T4MO mutant of KR1 Pseudomonas mendocina ENVpmx1 (McClay et al., The 97th Annual Meeting of ASM, Abstract K36, page 348 (1997)), Pseudomonas pickettii PKO1 (Byrne et al., Gene, 154:65–70 (1995)), Burkholderia cepacia G4 (Shields et al., Appl. Environ. Microbiol., 55:1624–1629 (1989)), Burkholderia sp. strain ENVBF1 (McClay et al., Appl. Environ. Microbiol., 62:2716–2722 (1996)), and Pseudomonas sp. strain ENVPC5 (McClay et al., 1996, supra) were cultured overnight at 30° C. in shake flasks containing basal salts medium (BSM; 10) supplemented with 0.4% sodium glutamate. Toluene was included in the vapor phase when induction of the toluene oxygenases was desired. Prior to substrate degradation assays the cultures were harvested by centrifugation and resuspended in BSM to an optical density at 550 nm (OD550) of 2, unless otherwise indicated. A standard curve of optical density vs. protein concentration for each strain was used to calculate the amount of protein per ml of the resuspended cultures.
(§2) To determine the range of alkenes that could be degraded by the toluene monooxygenase and the degradation kinetics of the toluene monooxygenases, 5-ml aliquots of the resuspended cultures were dispensed to 25-ml serum vials and crimp sealed with Teflon™ faced septa. Gaseous alkene substrates were added as pure compounds by using a gas-tight syringe, and other alkene substrates were added from stock solutions (20% in dimethylformamide). The amount of individual alkene substrates added were as follows: 1-butene, 2-butene, and 1,3-butadiene, 2.2 μM; epoxy butane, 1,3-butadiene monoxide, and epichlorohydrine, 8 μM; 1- and 2-pentene, 9 μM; hexene, 4 μM; octadiene, 4.5 μM; 2-chloropropene, 11 μM; and, 2,3-dichloropropene, 12 μM unless otherwise indicated. The serum vials were then placed horizontally on a rotary shaker operating at 100 rpm. During incubation the temperature was maintained between 20–22° C. for the Pseudomonads and at 37° C. for E. coli. The serum vials were periodically removed from the shaker and a 10–25 μl portion of the headspace gas was withdrawn through the septa and injected onto a gas chromatograph (GC) equipped with a 30 m Vocol column (Supelco Inc. Bellefonte, Pa.) maintained at 160° C., and a flame ionization detector. This allowed the monitoring of both the alkene compounds as well as the epoxide products. The same protocol was used to detect the formation of 1,2-butanediol and butadiene diepoxide, except that 1 μl of the culture media was injected onto the column rather than the headspace gas.

[2] = test system: Burkholderia cepacia G4; assay: Alkene degradation assay, whole cells of Burkholderia cepacia G4 (T2MO); type: cell-based; conditions: for alkene degraded that was detected as the epoxide product: toluene induced G4, 4.4 μmoles 1,3-butadiene or 2.2 μmoles 2-butene
Description: as §1, §2

[3] = biological target: T1, alkane hydroxylase (Ectopseudomonas oleovorans, UniProt P12691); conditions: cited from earlier work
T1 sequence (P12691 1-401): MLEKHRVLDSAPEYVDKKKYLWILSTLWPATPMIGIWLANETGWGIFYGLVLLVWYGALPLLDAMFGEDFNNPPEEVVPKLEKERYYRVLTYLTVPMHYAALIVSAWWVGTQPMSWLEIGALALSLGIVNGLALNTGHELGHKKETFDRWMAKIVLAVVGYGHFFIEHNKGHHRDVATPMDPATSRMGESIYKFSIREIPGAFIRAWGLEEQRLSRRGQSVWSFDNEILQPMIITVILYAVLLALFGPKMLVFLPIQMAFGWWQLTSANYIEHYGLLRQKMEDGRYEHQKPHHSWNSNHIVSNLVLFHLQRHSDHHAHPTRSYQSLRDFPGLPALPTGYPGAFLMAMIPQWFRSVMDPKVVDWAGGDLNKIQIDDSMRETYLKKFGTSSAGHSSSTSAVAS

[4] = test system: Pseudomonas mendocina KR1; assay: Alkene degradation assay, whole cells of Pseudomonas mendocina KR1 (T4MO); type: cell-based
Description: as §1, §2

[5] = test system: wild type organisms; assay: Alkene oxidation and epoxide detection (GC, PNBP), wild type organisms; type: cell-based; conditions: for epoxide detection during oxidation: wild type organisms
Experimental: as §2
The only epoxides relevant to this study that were commercially available were 1,3-butadiene mono-, and diepoxide. These were used in GC analyses to determine retention times and to quantitate the conversion of 1,3-butadiene to the corresponding epoxides. To verify that the observed peaks were epoxides, a modification of the method of van Hylckama et al. (van Hylckama et al., Appl. Environ. Microbiol., 62:3304–3312 (1996)) was used, whereby epoxides were conjugated with PNBP to form intensely colored adducts of the epoxides. Serum vials were prepared as before, except that prior to sealing the vials, Durham tubes were placed inside the vials, with the opening of the Durham tube extending out of the liquid. The substrate was then added and the vials were incubated with moderate shaking at a 45° angle to prevent the culture liquid from entering the Durham tube. The transformation of the alkenes was monitored by GC analysis. […] The vials were then allowed to incubate for 8 hours before they were opened and the epoxide containing PNBP withdrawn. The total volume of PNBP solution was combined with an equal volume of acetone-triethylamine (50:50) and mixed rapidly. Epoxide/PNBP adducts were detected by spectra analysis (400–700 nm).

[6] = test system: Pseudomonas sp. strain ENVPC5; assay: Alkene degradation assay, whole cells of Pseudomonas sp. strain ENVPC5 (T4MO); type: cell-based; conditions: for added substrate degraded: in 20 hours
Description: as §1, §2

[7] = test system: Pseudomonas mendocina KR1 (T4MO); assay: Enantiomeric ratio of monoepoxides (chiral GC), strain KR1; type: cell-based
Experimental: (§3) To determine the ratio of R and S isomers of the epoxides formed from the oxidation of the alkenes, samples were analyzed for the presence of the epoxides and alkenes by gas chromatography as described above. When the epoxide concentration neared its maximum, or when the 80–90% of the substrate was degraded, the enantiomeric ratio of epoxides produced was determined by injecting a sample of the headspace gas onto a GC equipped with a chiral separation column (RT-BDEXSE; Restek, Inc., Bellefonte, Pa.) and a flame ionization detector. The column was maintained at 50° C.

[8] = test system: Burkholderia sp. strain ENVBF1; assay: Enantiomeric ratio of monoepoxides (chiral GC), strain ENVBF1; type: cell-based
Experimental: as §3

[9] = test system: Pseudomonas sp. strain ENVPC5; assay: Enantiomeric ratio of monoepoxides (chiral GC), strain ENVPC5; type: cell-based; conditions: PC5
Experimental: as §3

[10] = test system: Burkholderia cepacia G4 (T2MO); assay: Enantiomeric ratio of monoepoxides (chiral GC), strain G4; type: cell-based
Experimental: as §3

[11] = test system: Pseudomonas pickettii PKO1 (T3MO); assay: Enantiomeric ratio of monoepoxides (chiral GC), strain PKO1; type: cell-based; conditions: KO1 (PKO1)
Experimental: as §3

[12] = test system: E. coli (pRS202) expressing T4MO; assay: Alkene degradation assay, E. coli (pRS202) expressing T4MO; type: cell-based, Escherichia coli DH10B
Experimental: Escherichia coli DH10B containing the plasmid pRS202 (Pikus et al., Biochemistry, 35:9106–9119 (1996); Pikus et al., Biochemistry, 36:9283–9289 (1997)) was prepared in a similar manner except it was grown at 37° C. in LB media, and was resuspended to an OD550 of 4 in LB media with 0.3–1 mM IPTG to induce expression of T4MO.
as §2

[13] = test system: Pseudomonas mendocina ENVpmx1; assay: Alkene degradation assay, T4MO deficient strain Pseudomonas mendocina ENVpmx1; type: cell-based
Description: as §1, §2

[14] = rate determined after 60 minutes of incubation
[15] = following 30 minutes incubation
[16] = ENVBF1, following 30 minutes incubation

C=CC1CO1 (stereo not drawn) [BME, 1,3-butadiene monoepoxide]
epoxide oxidized ([1]; induced ENVBF1, 24 hours): 13.4 µmol
epoxide degraded ([1]; uninduced ENVBF1, 24 hours): less than 1.3 μmoles
epoxide degraded ([2]; induced G4 in the presence of butadiene, approximately 5 hr): 0.7 µmol
epoxide degraded ([2]; induced G4 in the presence of toluene, approximately 5 hr): 0.5 µmol
epoxide degraded ([2]; toluene-induced G4, pure BME, first hour): 8 µmol
epoxide oxidized ([2]; uninduced G4, first hour): less than 1 μmole

C=CCCCCC1CO1 (stereo not drawn) [7,8-epoxy-1-octene]
enantiomeric purity of the (R) epoxide formed [3]: 83%

C=C(Cl)CCl [2,3-chloropropene, 2,3-dichloropropene]
amount oxidized, less than the amount of 2-chloropropene degraded by the same strain [4]: 95.2%
Specific activity of toluene monooxygenase, substrate degraded [4, 14]: 0.01 μM substrate degraded/minute/mg protein
epoxide detection during oxidation [5]: no epoxides were detected
amount oxidized, less than the amount of 2-chloropropene degraded by the same strain [6]: 66.0%
Specific activity of toluene monooxygenase, substrate degraded [6, 14]: 0.12 μM substrate degraded/minute/mg protein
amount oxidized, less than the amount of 2-chloropropene degraded by the same strain ([1]; ENVBF1): 75.6%
Specific activity of toluene monooxygenase, substrate degraded ([1]; ENVBF1, rate determined after 60 minutes of incubation): 0.08 μM substrate degraded/minute/mg protein
amount degraded compared with the T4MO-expressing organisms ([2]; G4): twice as much
Specific activity of toluene monooxygenase, substrate degraded ([2]; G4, rate determined after 60 minutes of incubation): 0.23 μM substrate degraded/minute/mg protein

C=CC=C [1,3-butadiene]
added substrate degraded ([4]; in 20 hours): 50%
substrate degraded ([4]; in 20 hours): 1.1 µmol
monoepoxide formed, R enantiomer [7]: 22.4%
monoepoxide formed, S enantiomer [7]: 77.6%
monoepoxide formed, R enantiomer [8]: 22%
monoepoxide formed, S enantiomer [8]: 78%
monoepoxide formed, R enantiomer [9]: 32.7%
monoepoxide formed, S enantiomer [9]: 67.3%
monoepoxide formed, R enantiomer [10]: 8.1%
monoepoxide formed, S enantiomer [10]: 91.9%
Specific activity of toluene monooxygenase, substrate degraded [6, 15]: 0.09 μM substrate degraded/minute/mg protein
added substrate degraded [6]: 50%
monoepoxide formed, R enantiomer [11]: 19.6%
monoepoxide formed, S enantiomer [11]: 80.4%
Specific activity of toluene monooxygenase, substrate degraded [1, 16]: 0.13 μM substrate degraded/minute/mg protein
time until oxidized to a concentration below the limits of detection ([2]; G4): ≤ 6 h
alkene degraded that was detected as the epoxide product [2]: > 95%

C=CCCCCC=C [1,7-octadiene]
enantiomeric purity of the (R) epoxide formed [3]: 98%

octadiene
epoxide detection during oxidation [5]: no epoxides were detected
degradation by the clone of T4MO [12]: did not oxidize
degradation compared with the wild type strains [13]: at a greater rate than the wild type strains
epoxide detection during oxidation [13]: no epoxides were detected

C=CCCC [1-pentene]
Specific activity of toluene monooxygenase, substrate degraded [4, 15]: 0.21 μM substrate degraded/minute/mg protein
monoepoxide formed, R enantiomer [7]: 54.2%
monoepoxide formed, S enantiomer [7]: 45.8%
monoepoxide formed, R enantiomer [8]: 66.3%
monoepoxide formed, S enantiomer [8]: 33.7%
monoepoxide formed, R enantiomer [9]: 72.5%
monoepoxide formed, S enantiomer [9]: 27.5%
monoepoxide formed, R enantiomer [10]: 100%
monoepoxide formed, S enantiomer [10]: 0%
degradation ([5]; all the wild type strains): efficiently degraded
degradation by the clone of T4MO [12]: degraded
Specific activity of toluene monooxygenase, substrate degraded [6, 15]: 0.15 μM substrate degraded/minute/mg protein
monoepoxide formed, R enantiomer [11]: 64.6%
monoepoxide formed, S enantiomer [11]: 35.4%
Specific activity of toluene monooxygenase, substrate degraded [1, 16]: 0.05 μM substrate degraded/minute/mg protein
Specific activity of toluene monooxygenase, substrate degraded ([2]; G4, following 30 minutes incubation): 0.08 μM substrate degraded/minute/mg protein

C=C(C)Cl [2-chloropropene]
substrate degraded ([4]; first 3 hours of incubation): 2.1 µmol
Specific activity of toluene monooxygenase, substrate degraded [4, 15]: 0.07 μM substrate degraded/minute/mg protein
additional substrate degraded ([4]; following 17 hours): 0.84 µmol
epoxide detection during oxidation [5]: no epoxides were detected
substrate degraded ([6]; first 3 hours of incubation): 4 µmol
Specific activity of toluene monooxygenase, substrate degraded [6, 15]: 0.18 μM substrate degraded/minute/mg protein
additional substrate degraded ([6]; following 17 hours): 1.0 µmol
substrate degraded ([1]; ENVBF1, first 3 hours of incubation): 2.3 µmol
Specific activity of toluene monooxygenase, substrate degraded [1, 16]: 0.16 μM substrate degraded/minute/mg protein
substrate degraded ([1]; ENVBF1, following 17 hours): 6.3 µmol

hexene
epoxide detection during oxidation [5]: no epoxides were detected
degradation by the clone of T4MO [12]: degraded
degradation compared with the wild type strains [13]: at a greater rate than the wild type strains
epoxide detection during oxidation [13]: no epoxides were detected

CC=CC [2-butene]
time to degrade all the substrate [4]: 3.5 h
added substrate degraded ([4]; in 20 hours): Greater than 95%
Specific activity of toluene monooxygenase, substrate degraded [6, 15]: 0.17 μM substrate degraded/minute/mg protein
added substrate degraded [6]: Greater than 95%
Specific activity of toluene monooxygenase, substrate degraded [1, 16]: 0.12 μM substrate degraded/minute/mg protein
alkene degraded that was detected as the epoxide product [2]: 43%

pentene
epoxide detection during oxidation [13]: no epoxides were detected
